Measurements: US20230172958A1, “USE OF COMPOUNDS FOR TREATING VIRAL INFECTIONS” (priority 2020, published 2023)

Columns and labels:
V-ATPase = V-ATPase ELISA (Human V-Type Proton ATPase ELISA kit) on treated MDAMB231 cells; type: cell-based; settings: 100 nM (0.1 μM)/10,000 cells, 48 hours
Description: An ELISA test was performed using Human V-Type Proton ATPase ELISA kit (My BioSource Catlog no: MBS911862) to determine the V-ATPase inhibitory effect of the compounds of the present invention.
Procedure: 1.0 million cells of MDAMB231 (cell line rich in V-ATPase) were plated on 60 mm plates for 24 hours at 37° C. and 5% CO2. The cells were treated with the test compounds (Formula A to U) at a concentration of 100 nM (0.1 μM)/10,000 cells and incubated for 48 hours. After incubation the supernatant was discarded, the cells were washed with D.P.B.S. (Dulbecco's phosphate-buffered saline), scraped and stored at −80° C. for 48 hours. The cells were thawed, vortexed, homogenized for 7 minutes, followed by centrifugation for 3 minutes at 3000 R.P.M. The supernatant was taken for V-ATPase Assay.
Standards and samples were pipetted into the wells. Antibody specific for V-ATPase was pre-coated onto a microplate. Any V-ATPase present in the standard /sample would get bound by the immobilized antibody. After the incubation period any unbound substances were removed by washing and a biotin-conjugated antibody specific for V-ATPase was added to the wells and plates were re-incubated at 37° C. and 5% CO2. After washing, avidin conjugated Horseradish Peroxidase (HRP) was added to the wells. Following a wash to remove any unbound avidin-enzyme reagent, a substrate solution was added to the wells and colour developed was in proportion to the amount of V-ATPase bound in the initial step. The colour development was stopped, and the optical density was measured at 450 nm spectrophotometrically. The concentration of V-ATPase was then calculated by substituting the optical density in the regression equation obtained from the standards. Percent (%) reduction in V-ATPase was calculated by subtracting the amount of V-ATPase obtained from the untreated/conc. of V-ATPase in untreated X100.

[1] = test system: Human Peripheral Blood Lymphocytes; assay: MTT toxicity assay on normal cells; type: cell-based; settings: 48 hours
Description: Toxicity studies of compounds of the present invention on normal cells The toxicity study was performed on Human Peripheral Blood Lymphocytes obtained differential centrifugation of defibrinated blood. MTT assay for compound of the present invention was performed to determine its toxicity. MTT assay is a simple and sensitive assay where, metabolic reducing activity of the cells is measured. It was carried out in the following manner.
A required volume of cell suspension was prepared as per the cell plating efficiency. 200 μl of prepared cell suspension was added in labelled 96 well plates and the plates were placed in an incubator for 18-24 hours at 37° C. and 5% CO2. Then, 2 μl of respective compound dilution was added and the plates were placed in the incubator for 48 hours at 37° C. and 5% CO2. The suspension was aspirated from the plates and 100 μl of working MTT solution (0.5 mg/ml MTT prepared from 5 mg/ml MTT stock in 1× complete media) was added. The plates were incubated in the incubator for 4 hours at 37° C. and 5% CO2. The plates were spinned down, supernatant removed, 200 μl DMSO was added, mixed gently and placed in the incubator for 10 minutes at 37° C. and 5% CO2. The absorbance at 570 nm was read and percentage viability and IC50 value of the compounds was calculated using regression analysis.

Structure (SMILES) | reduction of V-ATPase (%) (V-ATPase) | IC50 (μM) [1]
COc1cc2c(OC(=O)c3cccn3C)c3c(c(-c4ccc5c(c4)OCO5)c2cc1OC)C(=O)OC3 [Compound of Formula B, 9-(benzo[d][1,3]dioxol-5-yl)-1,3-dihydro-6,7-dimethoxy-1-oxonaphtho[2,3-c]furan-4-yl 1-methyl-1H-pyrrole-2-carboxylate] | 15.33% | No activity (Nontoxic)
COc1cc2c(OC(=O)C(c3ccccc3)C3CCCC3)c3c(c(-c4ccc5c(c4)OCO5)c2cc1OC)C(=O)OC3 (stereo not shown) [Compound of Formula C, 9-(benzo[d][1,3]dioxol-5-yl)-1,3-dihydro-6,7-dimethoxy-1-oxonaphtho[2,3-c]furan-4-yl 2-cyclopentyl-2-phenylacetate] | 14.69% | No activity (Nontoxic)
O=C(Nc1ccc(-c2ccc3c(c2)OCO3)c2ccccc12)c1ccco1 [Compound of Formula G, N-(1-(benzo[d][1,3]dioxol-5-yl)naphthalen-4-yl)furan-2-carboxamide] | 62.37% | 
c1ccc(COc2ccc(-c3ccc4c(c3)OCO4)c3cccnc23)cc1 [Compound of Formula H, 5-(benzo[d][1,3]dioxol-5-yl)-8-(benzyloxy)quinoline] | 61.34% | 
O=S(=O)(Nc1ccc(-c2ccc3c(c2)OCO3)c2ccccc12)c1ccccc1 [Compound of Formula I, N-(1-(benzo[d][1,3]dioxol-5-yl)naphthalen-4-yl)benzenesulphonamide] | 20.56% | No activity (Nontoxic)
O=S(=O)(Nc1ccc(-c2ccc3c(c2)OCO3)c2ccccc12)c1ccc(F)cc1 [Compound of Formula J, N-(1-(benzo[d][1,3]dioxol-5-yl)naphthalen-4-yl)-4-fluorobenzenesulphonamide] | 60.96% | 
O=C(CN1CCNCC1)Nc1ccc(-c2ccc3c(c2)OCO3)c2ccccc12 [Compound of Formula K, N-(1-(benzo[d][1,3]dioxol-5-yl)naphthalen-4-yl)-2-(piperazin-1-yl)acetamide] | 28.05% | 
c1ccc2c(-c3ccc4c(c3)OCO4)ccc(OCCCCN3CCOCC3)c2c1 [Compound of Formula M, 4-(4-(1-(benzo[d][1,3]dioxol-5-yl)naphthalen-4-yloxy)butyl)morpholine] | 76.16% | 
c1ccc2c(-c3ccc4c(c3)OCO4)ccc(OCCCCNC3CCCCC3)c2c1 [Compound of Formula N, N-(4-(1-(benzo[d][1,3]dioxol-5-yl)naphthalen-4-yloxy)butyl)cyclohexanamine] | 6.3% | 
c1cc2c(cc1-c1ccc(OCCCCCCNC3CCCCC3)c3c1CCCC3)OCO2 [Compound of Formula Q, N-(6-(5-(benzo[d][1,3]dioxol-5-yl)-1,2,3,4-tetrahydronaphthalen-8-yloxy)hexyl)cyclohexanamine] | 77.42% | 
C=CCNCCCCCCOc1ccc(-c2ccc3c(c2)OCO3)c2c1CCCC2 [Compound of Formula R, 6-(5-(benzo[d][1,3]dioxol-5-yl)-1,2,3,4-tetrahydronaphthalen-8-yloxy)-N-allylhexan-1-amine] | 16.2% | 
c1cnc2c(OCCN3CCOCC3)ccc(-c3ccc4c(c3)OCO4)c2c1 [Compound of Formula S, 8-(2-morpholinoethoxy)-5-(benzo[d][1,3]dioxol-5-yl)quinoline] | 75.5% | 
O=C(CN1CCNCC1)NCCOc1ccc(-c2ccc3c(c2)OCO3)c2ccccc12 [Compound of Formula T, N-(2-(1-(benzo[d][1,3]dioxol-5-yl)naphthalen-4-yloxy)ethyl)-2-(piperazin-1-yl)acetamide] | 81.9% | 
